Data set [1] addresses T1, HCV NS5B RNA-dependent RNA polymerase (1b-BKΔ55) (Hepatitis C virus genotype 1b, UniProt P26663).
T1 construct: 5 nM NS5B (1b-BKΔ55) enzyme
Put plainly: Inhibition of HCV NS5B polymerase by nucleoside triphosphate analogs (radiolabeled nucleotide incorporation assay). Format: biochemical. Here is the method: To measure inhibition of the enzymatic activity of the HCV NS5B RNA-dependent RNA polymerase by the nucleoside triphosphate compounds of the present invention, a radiolabeled nucleotide incorporation assay was used. This assay is a modified version of the assay described in International Publication No. WO2002/057287. Briefly, 50 μL reactions containing 20 mM HEPES (pH 7.3); 7.5 mM DTT; 20 units/mL RNasIN; 1 μM each of ATP, GTP, UTP and CTP; 20 μCi/mL [^33P]-CTP; 10 mM MgCl; 60 mM NaCl; 100 μg/mL BSA; 0.021 μM DCoH heteropolymer RNA template; and 5 nM NS5B (1b-BKΔ55) enzyme are incubated at room temperature for 1 hour. The assay is then terminated by the addition of 500 mM EDTA (50 μL). The reaction mixture is transferred to a Millipore DE81 filter plate and the incorporation of labeled CTP is determined using Packard TopCount. Compound IC50 values can then be calculated from experiments with 10 serial 3-fold dilutions of the inhibitor in duplicate. The intrinsic potency (Ki) of an NTP inhibitor is derived from its NS5B IC50 using the Cheng-Prusoff equation for a competitive inhibitor, as described in Cheng et al., Biochem Pharmacol 22:3099-3108 (1973): Ki=IC50/(1+[S]/Km), where [S]=1 μM, and Km is the concentration of cognate NTP yielding half-maximal enzyme activity in the assay absent exogenous inhibitors.
Data was obtained using this method for the NTP analogs of selected compounds below of the present invention, and is set forth below.

The test system of data set [2] is HCV replicon cells (1b-Con1). Put plainly: Replicon activity assay (replicon RNA level by real-time RT-PCR). To be noted: Hepatitis C virus, 72 h, read-out: Replicon (1b) EC50. The format is cell-based. On the technique in general: Replicon systems follow genome replication, usually without infectious particles.
For a further data set, the system named is replicon cells (1b-Con1). Briefly: Cytotoxicity in replicon cells (MTS assay). The following applies: CC50, MTS assay, three days post dosing.

Read-outs that look alike come from different tables or passages of the source.

What is called Ki is a dissociation constant, usually derived from enzyme kinetics or from competition with a known ligand. A high value points to a looser hold on the target. A word on the EC50: it is the concentration needed to bring the measured effect to its halfway point.

T1 sequence (P26663 2420-2955, stated change not applied): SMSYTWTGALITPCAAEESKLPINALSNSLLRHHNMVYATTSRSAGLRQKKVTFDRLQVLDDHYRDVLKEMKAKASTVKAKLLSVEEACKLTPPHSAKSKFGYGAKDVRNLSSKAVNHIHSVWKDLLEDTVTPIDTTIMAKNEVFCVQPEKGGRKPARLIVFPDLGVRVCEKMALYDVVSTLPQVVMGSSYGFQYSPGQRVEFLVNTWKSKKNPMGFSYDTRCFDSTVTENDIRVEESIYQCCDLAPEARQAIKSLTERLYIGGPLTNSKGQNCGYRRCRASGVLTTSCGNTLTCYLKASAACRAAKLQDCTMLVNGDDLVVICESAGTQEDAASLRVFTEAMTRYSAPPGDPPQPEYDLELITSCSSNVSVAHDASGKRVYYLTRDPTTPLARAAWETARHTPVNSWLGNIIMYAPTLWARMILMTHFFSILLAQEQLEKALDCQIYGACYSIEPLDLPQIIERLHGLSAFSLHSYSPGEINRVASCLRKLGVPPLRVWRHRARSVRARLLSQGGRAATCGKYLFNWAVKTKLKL

In turn, `CC#C[C@@]1(O)[C@H](O)[C@@H](COP(=O)(O)OP(=O)(O)OP(=O)(O)O)O[C@H]1n1ccc(=O)[nH]c1=O` returned a Ki in data set [1] of 58 nM. Regarding `CC(C)OC(=O)[C@H](C)NP(=O)(OC[C@H]1O[C@@H](n2ccc(=O)[nH]c2=O)[C@@](O)(C#CC(F)(F)F)[C@@H]1O)Oc1ccccc1` (stereo partly shown), the EC50 in data set [2] came out at 25200 nM. Besides, the Cytotoxicity in the data set with replicon cells (1b-Con1) was found to be 40.7 µM. As to `CC#C[C@]1(O)[C@H](O)[C@@H](COP(=O)(N[C@@H](C)C(=O)OC(C)C)Oc2ccccc2)O[C@H]1n1ccc(=O)[nH]c1=O` (single isomer, unassigned), the EC50 in data set [2] was determined as 940 nM. Besides, in the data set on replicon cells (1b-Con1), the Cytotoxicity is greater than 100 µM.

As to `C#C[C@]1(O)[C@H](O)[C@@H](COP(=O)(O)OP(=O)(O)OP(=O)(O)O)O[C@H]1n1ccc(=O)[nH]c1=O`, in data set [1], the inhibition constant Ki was roughly 19000 nM. Regarding `CC(C)OC(=O)[C@H](C)NP(=O)(OC[C@H]1O[C@@H](n2ccc(=O)[nH]c2=O)[C@@](O)(C#CC2CC2)[C@@H]1O)Oc1ccccc1` (stereo partly shown), the 50% effective concentration (EC50) in data set [2] was determined as 1100 nM. Besides, the Cytotoxicity with replicon cells (1b-Con1) stood at 14.2 µM.

Consider `C#C[C@@]1(O)[C@H](O)[C@@H](COP(=O)(O)OP(=O)(O)OP(=O)(O)O)O[C@H]1n1ccc(=O)[nH]c1=O`, for which the Ki in data set [1] is 36 nM. With `C#C[C@@]1(O)[C@H](OC(=O)C(C)C)[C@@H](COP(=O)(N[C@@H](C)C(=O)OC(C)C)Oc2ccccc2)O[C@H]1n1ccc(=O)[nH]c1=O` (single isomer, unassigned), the concentration giving a half-maximal response (EC50) in data set [2] amounted to 100 nM. For the same compound, the Cytotoxicity in the data set on replicon cells (1b-Con1) was greater than 100 µM. In data set [1], `CC#C[C@]1(O)[C@H](O)[C@@H](COP(=O)(O)OP(=O)(O)OP(=O)(O)O)O[C@H]1n1ccc(=O)[nH]c1=O` displayed an inhibition constant (Ki) of roughly 12000 nM. As for `C#C[C@@]1(O)[C@@H]2OP(=O)(OC(C)C)OC[C@H]2O[C@H]1n1ccc(=O)[nH]c1=O` (single isomer, unassigned), the 50% effective concentration (EC50) in data set [2] (1b-Con1 replicon cells, three days post-dosing) was determined as 21000 nM. The compound further came in with a Cytotoxicity in the data set with replicon cells (1b-Con1) greater than 100 µM.

As to `CC#C[C@@]1(F)[C@H](O)[C@@H](COP(=O)(N[C@@H](C)C(=O)OC(C)C)Oc2ccccc2)O[C@H]1n1ccc(=O)[nH]c1=O` (stereo partly shown), the half-maximal effective concentration (EC50) in data set [2] was 45700 nM. In the data set with replicon cells (1b-Con1), this compound returned a Cytotoxicity of 74.4 µM. Compound `C#C[C@@]1(N)[C@H](O)[C@@H](COP(=O)(O)OP(=O)(O)OP(=O)(O)O)O[C@H]1n1ccc(=O)[nH]c1=O` displayed an inhibition constant Ki in data set [1] of 1200 nM.

Take `C#C[C@@]1(O)[C@H](O)[C@@H](COP(=O)(N[C@@H](C)C(=O)OC(C)C)Oc2ccccc2)O[C@H]1n1ccc(=O)[nH]c1=O` (single isomer, unassigned): the concentration giving a half-maximal response (EC50) in data set [2] was determined as 90 nM. For the same compound, the Cytotoxicity with replicon cells (1b-Con1) was greater than 100 µM.

Values taken from patent publication US9732111B2, “2′-alkynyl substituted nucleoside derivatives and methods of use thereof for the treatment of viral diseases” (Merck Sharp & Dohme Corp., priority 2012, dated 2017).
